From ChEMBL document CHEMBL3045969, “Synthesis and evaluation of some new 4-aminopyridine derivatives as a potent antiamnesic and cognition enhancing drugs” (Med Chem Res, 2012)

Assays:
Rattus norvegicus [1] = assay: Antiamnesic activity in scopolamine-induced amnesia Charles Foster albino Rattus norvegicus (rat) model assessed as transfer latency time at 5 mg/kg, po qd for 7 days measured 1 hr post last dose on day 7 by elevated plus maze test; type: functional
Rattus norvegicus [2] = assay: Antiamnesic activity in po dosed scopolamine-induced amnesia Charles Foster albino Rattus norvegicus (rat) model assessed as transfer latency time administered once daily for 8 days measured 1 hr post last dose on day 8 by elevated plus maze test; type: functional, organism-based
Rattus norvegicus [3] = assay: (§1) Inhibition of AChE in po dosed Charles Foster albino Rattus norvegicus (rat) assessed as hydrolysis of acetylthiocholine iodide per mg of protein in hypothalamus administered qd for 7 days measured 1 hr post last dose on day 7 by spectrophotometry (reference value: 40.50 +/-0.76 moles/min/mg protein); type: functional, organism-based
Rattus norvegicus [4] = assay: Cognition enhancing activity in Charles Foster albino Rattus norvegicus (rat) assessed as transfer latency time at 10 mg/kg, po qd for 7 days measured 1 hr post last dose on day 7 by elevated plus maze test; type: functional
Rattus norvegicus [5] = assay: as §1, with “prefrontal cortex” for “hypothalamus”, “45.83 +/-0.94” for “40.50 +/-0.76”; type: functional, organism-based
Rattus norvegicus [6] = assay: (§2) Inhibition of AChE in Charles Foster albino Rattus norvegicus (rat) assessed as hydrolysis of acetylthiocholine iodide per mg of protein in hippocampus at 5 mg/kg, po qd for 7 days measured 1 hr post last dose on day 7 by spectrophotometry (reference value: […]/mg protein); type: functional
Rattus norvegicus [7] = assay: Acute toxicity in Charles Foster albino Rattus norvegicus (rat) assessed as mortality at >35 mg/kg of body weight, po measured up to 24 hr; type: organism-based; settings: in vivo
Rattus norvegicus [8] = assay: Cognition enhancing activity in Charles Foster albino Rattus norvegicus (rat) assessed as transfer latency time at 10 mg/kg, po qd for 8 days measured 1 hr post last dose on day 8 by elevated plus maze test; type: functional
Rattus norvegicus [9] = assay: Inhibition of AChE in Charles Foster albino Rattus norvegicus (rat) assessed as hydrolysis of acetylthiocholine iodide per mg of protein in hippocampus at 10 mg/kg, po qd for 7 days measured 1 hr post last dose on day 7 by spectrophotometry (reference value: […]/mg protein); type: functional
Rattus norvegicus [10] = assay: Antiamnesic activity in scopolamine-induced amnesia Charles Foster albino Rattus norvegicus (rat) model assessed as transfer latency time at 10 mg/kg, po qd for 7 days measured 1 hr post last dose on day 7 by elevated plus maze test; type: functional
Rattus norvegicus [11] = assay: Cognition enhancing activity in Charles Foster albino Rattus norvegicus (rat) assessed as transfer latency time at 5 mg/kg, po qd for 8 days measured 1 hr post last dose on day 8 by elevated plus maze test; type: functional
Rattus norvegicus [12] = assay: Antiamnesic activity in scopolamine-induced amnesia Charles Foster albino Rattus norvegicus (rat) model assessed as transfer latency time at 10 mg/kg, po qd for 8 days measured 1 hr post last dose on day 8 by elevated plus maze test; type: functional
Rattus norvegicus [13] = assay: Inhibition of AChE in Charles Foster albino Rattus norvegicus (rat) assessed as hydrolysis of acetylthiocholine iodide per mg of protein in prefrontal cortex at 10 mg/kg, po qd for 7 days measured 1 hr post last dose on day 7 by spectrophotometry (reference value: […]/mg protein); type: functional
Rattus norvegicus [14] = assay: Inhibition of AChE in Charles Foster albino Rattus norvegicus (rat) assessed as hydrolysis of acetylthiocholine iodide per mg of protein in prefrontal cortex at 5 mg/kg, po qd for 7 days measured 1 hr post last dose on day 7 by spectrophotometry (reference value: […]/mg protein); type: functional
Rattus norvegicus [15] = assay: Antiamnesic activity in scopolamine-induced amnesia Charles Foster albino Rattus norvegicus (rat) model assessed as transfer latency time at 5 mg/kg, po qd for 8 days measured 1 hr post last dose on day 8 by elevated plus maze test; type: functional
Rattus norvegicus [16] = assay: Inhibition of AChE in Charles Foster albino Rattus norvegicus (rat) assessed as hydrolysis of acetylthiocholine iodide per mg of protein in hypothalamus at 10 mg/kg, po qd for 7 days measured 1 hr post last dose on day 7 by spectrophotometry (reference value: […]/mg protein); type: functional
Rattus norvegicus [17] = assay: Inhibition of AChE in Charles Foster albino Rattus norvegicus (rat) assessed as hydrolysis of acetylthiocholine iodide per mg of protein in hypothalamus at 5 mg/kg, po qd for 7 days measured 1 hr post last dose on day 7 by spectrophotometry (reference value: […]/mg protein); type: functional
Rattus norvegicus [18] = assay: Cognition enhancing activity in Charles Foster albino Rattus norvegicus (rat) assessed as transfer latency time at 5 mg/kg, po qd for 7 days measured 1 hr post last dose on day 7 by elevated plus maze test; type: functional
Rattus norvegicus [19] = assay: as §2, with “AChE in po dosed Charles Foster” for “AChE in Charles Foster”, “in hippocampus administered po qd” for “in hippocampus at 5 mg/kg, po qd”; type: functional, organism-based
Rattus norvegicus [20] = assay: Cognition enhancing activity in Charles Foster albino Rattus norvegicus (rat) assessed as transfer latency time at 200 mg/kg, ip for 2 days measured 1 hr post last dose on day 2 by elevated plus maze test; type: functional; settings: route intraperitoneal
Rattus norvegicus [21] = assay: Antiamnesic activity in scopolamine-induced amnesia Charles Foster albino Rattus norvegicus (rat) model assessed as transfer latency time at 200 mg/kg, ip ip for 2 days measured 1 hr post last dose on day 2 by elevated plus maze test; type: functional; settings: route intraperitoneal
Rattus norvegicus [22] = assay: Antiamnesic activity in scopolamine-induced amnesia Charles Foster albino Rattus norvegicus (rat) model assessed as transfer latency time at 200 mg/kg, ip measured after 30 min by elevated plus maze test; type: functional; settings: route intraperitoneal
Rattus norvegicus [23] = assay: Cognition enhancing activity in Charles Foster albino Rattus norvegicus (rat) at 200 mg/kg, ip measured 30 min post dose by elevated plus maze test; type: functional; settings: route intraperitoneal

SMILES | Time (Rattus norvegicus [1]) [s] | Activity (Rattus norvegicus [2]) | inhibition (Rattus norvegicus [3]) | Time (Rattus norvegicus [4]) [s] | inhibition (Rattus norvegicus [5]) | Activity (Rattus norvegicus [6]) [nmol/min] | Activity (Rattus norvegicus [7]) | Time (Rattus norvegicus [8]) [s] | Activity (Rattus norvegicus [9]) [nmol/min] | Time (Rattus norvegicus [10]) [s] | Time (Rattus norvegicus [11]) [s] | Time (Rattus norvegicus [12]) [s] | Activity (Rattus norvegicus [13]) [nmol/min] | Activity (Rattus norvegicus [14]) [nmol/min] | Time (Rattus norvegicus [15]) [s] | Activity (Rattus norvegicus [16]) [nmol/min] | Activity (Rattus norvegicus [17]) [nmol/min] | Time (Rattus norvegicus [18]) [s] | inhibition (Rattus norvegicus [19]) | other results
COc1ccc(/C=N\c2ccncc2)cc1OC | 53.83 | Dose-dependent effect | Dose-dependent effect | 53 | Dose-dependent effect | 41.17 | Non-toxic | 47.5 | 35.83 | 48.5 | 50.33 | 42.5 | 33.17 | 36.5 | 50.67 | 30.5 | 35.5 | 58 | Dose-dependent effect | 
C/C(=N/c1ccncc1)c1ccc(O)cc1 | 53.17 | Dose-dependent effect | Dose-dependent effect | 50.83 | Dose-dependent effect | 40.5 | Non-toxic | 46.83 | 36.5 | 47 | 56.17 | 41.67 | 33 | 39.33 | 50.67 | 29.67 | 35.17 | 59.83 | Dose-dependent effect | 
Oc1ccccc1/C=N\c1ccncc1 | 53.5 | Dose-dependent effect | Dose-dependent effect | 52.17 | Dose-dependent effect | 41.83 | Non-toxic | 42.5 | 36.83 | 48.17 | 50.17 | 42.5 | 33 | 37.5 | 50.17 | 30.5 | 34.33 | 59.83 | Dose-dependent effect | 
Oc1ccc(/C=N\c2ccncc2)c(O)c1 | 51.67 | Dose-dependent effect | Dose-dependent effect | 52.5 | Dose-dependent effect | 42.83 | Non-toxic | 48.67 | 34.83 | 46.5 | 51.17 | 43 | 30.5 | 41 | 51.67 | 30 | 34.5 | 60.33 | Dose-dependent effect | 
c1ccc(C(=Nc2ccncc2)c2ccccc2)cc1 | 46.83 | Dose-dependent effect | Dose-dependent effect | 46.83 | Dose-dependent effect | 42.17 | Non-toxic | 40.17 | 37.5 | 45.67 | 44 | 41.17 | 32.83 | 37 | 41.83 | 29.67 | 34.67 | 49.17 | Dose-dependent effect | 
NC(=O)CN1CCCC1=O [PIRACETAM] |  |  |  |  |  |  |  |  |  |  |  |  |  |  |  |  |  |  |  | Time (Rattus norvegicus [20]): 45.67 s; Time (Rattus norvegicus [21]): 43.33 s; Time (Rattus norvegicus [22]): 47 s; Time (Rattus norvegicus [23]): 49.5 s
COc1ccc(/C=N\c2ccncc2)cc1 | 52 | Dose-dependent effect | Dose-dependent effect | 52.67 | Dose-dependent effect | 41.5 | Non-toxic | 46.33 | 36.5 | 48.67 | 49.5 | 43.17 | 31 | 36 | 50.83 | 30.83 | 35.67 | 57.83 | Dose-dependent effect | 
C(=N/c1ccncc1)/c1ccccc1 | 53.83 | Dose-dependent effect | Dose-dependent effect | 52.5 | Dose-dependent effect | 43.83 | Non-toxic | 47.17 | 36.83 | 48.83 | 51.83 | 42.67 | 33.83 | 39 | 51.5 | 35.5 | 29.33 | 59.67 | Dose-dependent effect | 
